One compound from patent US4740504A, “Antihyperlipidemic amine boranes” (United States Borax & Chemical Corp., priority 1987, dated 1988) can be followed below.

The structures appear in SMILES notation.

Assay [1] has as its system sn-Glycerol-3-phosphate acyl transferase. The experiment in a line: Enzyme activity after in vivo dosing: sn-glycerol-3-phosphate acyl transferase. As to conditions: 16 mg/kg/day.
Assay [2] relates to hyperlipidemic induced mice. The experiment in a line: Hypolipidemic activity in diet-induced hyperlipidemic mice. As to conditions: 8 mg./kg./day i.p., 12 days. It is filed as in vivo. The method, then:
The same compound was tested in mice that had been placed on a commercial diet to produce a "hyperlipidemic" state. […] Serum cholesterol and triglyceride levels were measured at that time. A similar lowering of cholesterol and triglyceride levels in the hyperlipidemic-induced mice was observed.

Regarding `[BH3-][N+](C)(C)CCCCCCCCCCCCCCCCCC` [I, N-n-Octadecyl-N,N-Dimethylamine Borane], in assay [1], the “reduction of sn-glycerol-3-phosphate acyl transferase activity” value is 33%. Also, in assay [2] (hyperlipidemic induced mice (elevated to 375 mg %, control 128 mg %)), the “serum cholesterol level after treatment” value came out at 180 mg %. Further, the “reduction of serum cholesterol level” value in assay [2] (hyperlipidemic induced mice) amounted to 52%. Further, the “serum triglyceride level after treatment” value in assay [2] (hyperlipidemic mice (elevated to 367 mg/dl, normal 137 mg/dl)) turned out to be 187 mg %. In addition, the “reduction of serum triglyceride level” value in assay [2] (hyperlipidemic mice) was determined as 49%.
